Data taken from patent publication US9730944B2, “Antiviral activity of novel bicyclic heterocycles” (priority 2010, dated 2017).
Values after ≈ are worked out from the molar mass of the structure shown. Like-named read-outs stand apart in the source and are kept apart here.

What was measured:
in vitro [1] = details: human, PV CC50
poliovirus (PV type 1) = assay: microbe, parasite or virus in culture; assay type: cell-based; details: Enterovirus C, read-out: PV-1 EC50
HIV-2 strain (ROD) = assay: Inhibition of replication of HIV-2 (ROD strain) in MT-4 cells, MTT assay; assay type: cell-based; details: Human immunodeficiency virus 2, MT4, 120 h, read-out: EC50 (μM) HIV-2 (ROD)
poliovirus (PV type 2) = assay: microbe, parasite or virus in culture; assay type: cell-based; details: Enterovirus C, read-out: PV-2 EC50
poliovirus (PV type 3) = assay: microbe, parasite or virus in culture; assay type: cell-based; details: Enterovirus C, read-out: PV-3 EC50
in vitro [2] = details: African green monkey, PV CC50
in vitro [3] = details: human
HIV-1 strain IIIB = assay: Inhibition of replication of HIV-1 (IIIB strain) in MT-4 cells, MTT assay; assay type: cell-based; details: Human immunodeficiency virus 1, IIIB, MT4, 120 h, read-out: EC50 (μM) HIV-1 (IIIB)
[4] = MT-4 cells, MTT assay, five days after infection, 50% protection from cytopathic effect

| SMILES | CC50 (in vitro [1]) | EC50 (poliovirus (PV type 1); HeLa) | EC50 (poliovirus (PV type 1); Vero) | EC50 (HIV-2 strain (ROD); [4]) | EC50 (poliovirus (PV type 2); HeLa) | EC50 (poliovirus (PV type 2); Vero) | EC50 (poliovirus (PV type 3); HeLa) | EC50 (poliovirus (PV type 3); Vero) | CC50 (in vitro [2]) | CC50 (in vitro [3]) | EC50 (HIV-1 strain IIIB; [4]) | EC50 (HIV-2 strain (ROD)) | EC50 (HIV-1 strain IIIB) |
| --- | --- | --- | --- | --- | --- | --- | --- | --- | --- | --- | --- | --- | --- |
| CCOC(=O)Cc1nc(N2CCN(C(=O)COc3ccc(Cl)cc3)CC2)c2cc(-c3ccc(F)cc3)sc2n1 [Example 354, ethyl 2-(4-(4-(2-(4-chlorophenoxy)acetyl)piperazin-1-yl)-6-(4-fluorophenyl)thieno[2,3-d]pyrimidin-2-yl)acetate] | > 50 µg/mL | > 50 µg/mL | > 50 µg/mL | > 159 µM | ≥ 50 µg/mL | > 50 µg/mL | > 50 µg/mL | > 50 µg/mL | 129 µg/mL (≈ 227 µM) | 159 µM | > 159 µM | – | – |
| Nc1nc(N2CCN(C(=O)COc3ccc(F)cc3)CC2)c2nc(CCc3ccc(F)cc3)sc2n1 [Example 51, 1-(4-(5-amino-2-(4-fluorophenethyl)thiazolo[5,4-d]pyrimidin-7-yl)piperazin-1-yl)-2-(4-fluorophenoxy)ethanone] | > 50 µg/mL | 0.13 µg/mL (≈ 0.255 µM) | 0.12 µg/mL (≈ 0.235 µM) | > 210 µM | 0.23 µg/mL (≈ 0.45 µM) | 0.13 µg/mL (≈ 0.255 µM) | 20.2 µg/mL (≈ 39.5 µM) | 2.68 µg/mL (≈ 5.25 µM) | 50 µg/mL (≈ 97.9 µM) | 210 µM | 4.9 µM | – | – |
| NC(=O)c1nc(N2CCN(C(=O)COc3ccc(Cl)cc3)CC2)c2cc(-c3ccc(F)cc3)sc2n1 [Example 355, 4-(4-(2-(4-chlorophenoxy)acetyl)piperazin-1-yl)-6-(4-fluorophenyl)thieno[2,3-d]pyrimidine-2-carboxamide] | > 50 µg/mL | > 50 µg/mL | > 50 µg/mL | > 150 µM | ≥ 50 µg/mL | ≥ 50 µg/mL | > 50 µg/mL | > 50 µg/mL | 117 µg/mL (≈ 222 µM) | 150 µM | > 150 µM | – | – |
| Nc1nc(N2CCN(C(=O)COc3ccc(Cl)cc3)CC2)c2nc(CCc3ccc(F)cc3)oc2n1 [Example 172, 1-(4-(5-amino-2-(4-fluorophenethyl)oxazolo[5,4-d]pyrimidin-7-yl)piperazin-1-yl)-2-(4-chlorophenoxy)ethanone] | > 50 µg/mL | 32 µg/mL (≈ 62.6 µM) | 1.16 µg/mL (≈ 2.27 µM) | – | 15.6 µg/mL (≈ 30.6 µM) | 1.11 µg/mL (≈ 2.17 µM) | > 50 µg/mL | 4.36 µg/mL (≈ 8.53 µM) | 76.2 µg/mL (≈ 149 µM) | 32 µM | – | ≥ 32 µM | 1.82 µM |
| Nc1nc(N2CCN(C(=O)COc3ccc(Cl)cc3)CC2)c2nc(C(Cc3ccccc3)c3ccc(F)cc3)sc2n1 (stereo not shown) [Example 67, 1-(4-(5-amino-2-(1-(4-fluorophenyl)-2-phenylethyl)thiazolo[5,4-d]pyrimidin-7-yl)piperazin-1-yl)-2-(4-chlorophenoxy)ethanone] | > 50 µg/mL | > 50 µg/mL | > 50 µg/mL | > 50 µM | ≥ 50 µg/mL | 11.9 µg/mL (≈ 19.7 µM) | > 50 µg/mL | > 50 µg/mL | 114 µg/mL (≈ 189 µM) | > 50 µM | > 50 µM | – | – |
| Cc1nc(N2CCN(C(=O)COc3ccc(Cl)cc3)CC2)c2cc(-c3ccc(F)cc3)sc2n1 [Example 325, 2-(4-chlorophenoxy)-1-(4-(6-(4-fluorophenyl)-2-methylthieno[2,3-d]pyrimidin-4-yl)piperazin-1-yl)ethanone] | > 50 µg/mL | > 50 µg/mL | > 50 µg/mL | > 208 µM | ≥ 50 µg/mL | > 50 µg/mL | > 50 µg/mL | > 50 µg/mL | 67.8 µg/mL (≈ 136 µM) | 208 µM | > 208 µM | – | – |
| Cc1cccc(NC(=O)N2CCN(c3nc(N)nc4sc(-c5ccc(F)cc5)cc34)CC2)c1 [Example 359, 4-(2-amino-6-(4-fluorophenyl)thieno[2,3-d]pyrimidin-4-yl)-N-m-tolylpiperazine-1-carboxamide] | > 50 µg/mL | 0.94 µg/mL (≈ 2.03 µM) | 0.43 µg/mL (≈ 0.93 µM) | 10.4 µM | 0.41 µg/mL (≈ 0.886 µM) | 0.21 µg/mL (≈ 0.454 µM) | 1.07 µg/mL (≈ 2.31 µM) | 0.73 µg/mL (≈ 1.58 µM) | > 150 µg/mL | 140 µM | 6.18 µM | – | – |
| Cc1cccc(OCC(=O)N2CCN(c3nc(N)nc4sc(CCc5ccc(F)cc5)nc34)CC2)c1 [Example 53, 1-(4-(5-amino-2-(4-fluorophenethyl)thiazolo[5,4-d]pyrimidin-7-yl)piperazin-1-yl)-2-(m-tolyloxy)ethanone] | > 50 µg/mL | 0.41 µg/mL (≈ 0.809 µM) | 0.12 µg/mL (≈ 0.237 µM) | > 7.96 µM | 9.73 µg/mL (≈ 19.2 µM) | 0.14 µg/mL (≈ 0.276 µM) | > 16.7 µg/mL | 1.4 µg/mL (≈ 2.76 µM) | > 150 µg/mL | 201 µM | > 7.96 µM | – | – |
